Measurements published in patent EP0164478A2, “Citric-acid salt of (-)vinburnine and process for its preparation” (COVEX (S.A.), priority 1984, dated 1985).
Where a name gives a salt, the structure may show the parent alone.

What was measured:
oxyhémoglobine = experiment: Dissociation of oxyhaemoglobin in anaesthetised dogs (Fig. 2); format: in vivo, chiens; conditions: 5mg/kg (Fig. 2)
Description: (§1) L'invention sera mieux comprise à la lecture du complément de description qui suit se référant aux dessins annexés dans lesquels: • - La Fig.l est une illustration graphique de l'augmentation de consommation cérébrale de desoxyglucose chez un animal traité avec le citrate de vinburnine • - La Fig.2, est une illustration graphique de l'augmentation de la dissociation de l'oxyhémoglobine chez un animal traité avec le citrate de vinburnine. Dans l'étude sur l'augmentation de la consommation du glucose, on a utilisé des doses de 1 à 4 Mg/kg de citrate de vinburnine chez des chiens auxquels on administre du deoxyglucose marqué au C14, par voie orale.
(§2) Cette différence observée dans l'importance de la dissociation de l'oxyhémoglobine par la vinburnine et le citrate de vinburnine est illustrée sur le graphique de la Fig.2.

Solubility in water = format: physicochemical; conditions: water / aqueous solution
[1] = system: circulation cérébrale (artère carotide interne); experiment: Cerebral circulation (internal carotid artery) and vascular resistance after intravenous and intra-arterial administration in dogs; format: in vivo, chiens; conditions: relative to vinburnine = 1,0 (arbitrary); for CERVEAU Diminution résistance vasculaire i.v. / CERVEAU augmentation circulation i.v.: 1 à 4 mg/kg, 4 mg/kg
Method: D'autre part, on a réalisé une étude spr la pression sanguine et la circulation cérébrale en administrant des doses intraveineuses de 1 à 4 mg/kg d'animal.
Dans l'étude de l'effet de ce composé, on a enregistré et calculé la circulation cérébrale (artère carotide interne) et la résistance vasculaire lors de l'administration des composés par voie intraveineuse et intraartérielle chez des chiens. Les valeurs données dans le tableau suivant sont rapportés à la valeur de 1,0 donnée arbitrairement à la vinburnine.

[2] = DL50 in the dog, intravenous administration; format: in vivo, chien; conditions: i.v.; for DL50: relative to vinburnine = 1,0 (arbitrary)
Description: Les propriétés pharmacologiques du citrate de vinburnine ont été utlisées en thérapie avec de bons résultats.

[3] = system: consommation cérébrale du C14-desoxyglucose; experiment: Cerebral consumption of C14-labelled deoxyglucose in dogs (Fig. 1); format: in vivo, chiens; conditions: 1 à 4 Mg/kg, C14-deoxyglucose given orally, compared with untreated animal and with vinburnine (Fig. 1)
Description: as §1, §2

Row | Structure (SMILES) | dissociation de l'oxyhémoglobine (oxyhémoglobine) | solubilité dans l'eau (Solubility in water) | CERVEAU Diminution résistance vasculaire i.a. [1] | CERVEAU augmentation circulation i.a. [1] | CERVEAU Diminution résistance vasculaire i.v. [1] | CERVEAU augmentation circulation i.v. [1] | valeurs de DL50 ([2]; in words, compared with vinburnine base) | DL50 [2] | consommation cérébrale du C14-desoxyglucose [3]
1 | CC[C@]12CCCN3CCc4c(n(c5ccccc45)C(=O)C1)[C@@H]32 [citrate de vinburnine, citrate de (-) vinburnine] | augmentation dans la dissociation de l'oxyhémoglobine | soluble en solution aqueuse | 0,6 | 0,8 | 0,8 | 0,9 | sensiblement inférieures à celles correspondant à la vinburnine sous forme de base | 1,2 | consommation du glucose plus importante
2 | CC[C@]12CCCN3CCc4c(n(c5ccccc45)C(=O)C1)[C@@H]32 [vinburnine] | – | insoluble dans l'eau | 1,0 | 1,0 | 1,0 | 1,0 | – | 1,0 | augmentation de la consommation cérébrale du C14-desoxyglucose
